Source: patent publication US20230060873A1, “COMPOUNDS AND METHODS FOR FORMING ION CHANNELS IN BIOLOGICAL MEMBRANES” (Washington University, priority 2021, published 2023)
Values after ≈ are worked out from the molar mass of the structure shown.

Legend:
[1] = Solubility in trifluoroethanol (TFE); assay type: physicochemical; conditions: trifluoroethanol stock solutions
Bacillus subtilis [2] = assay: Toxicity (MIC) of dialkylated lariat ethers on B. subtilis; assay type: cell-based; conditions: B. subtilis 168 WT, 12 h, visual turbidity, read-out: minimum inhibitory concentration (MIC)
Protocol: The cyto-toxicity was determined by measuring the minimum inhibitory concentrations (MIC) for this series of dialkylated lariat ethers in the Gram-negative bacteria Escherichia coli, the Gram-positive bacteria Bacillus subtilis, and human embryonic kidney (HEK293T) cells.
On bacteria. XL1 blue strain Escherichia coli cells transformed with a pET28a plasmid (which contains a kanamycin resistance gene) were grown at 37° C. in 2 mL of LB medium (Miller's LB broth, Research Products International) supplemented with 50 μg/mL of kanamycin until the optical density (600 nm) reached 0.600. The starting density of bacteria in the remainder of the experiments was a 1/100 dilution of this bacterial density, which was split into 4 mL cultures. A series of 400, 100, 10 and 5 mM stock solutions of each dialkylated diaza(18-crown-6) compounds in trifluoroethanol (TFE) were diluted by adding to the 4 mL cultures until final concentrations of 400, 200, 100, 50, 20, 15, 10, 5, 4, 3, 2 and 1 μM were reached, with the final TFE concentration never >0.1% v/v. Negative controls in the presence of TFE 0.1% v/v or the absence of any treatment were done for each batch. The cultures were incubated at 37° C. with agitation for 12 h. Bacillus subtilis (168 WT) toxicity tests were carried out using an identical protocol, except for the addition of the antibiotic. […] Each compound was assayed a minimum of three times at each tested concentration.

Bacillus subtilis [3] = assay: Toxicity (MIC) of MAcBCE and MAkBCE compounds on B. subtilis; assay type: cell-based; conditions: B. subtilis 168 WT with pRB374, 12 h, up to 400 μM
Protocol: XL1 blue strain Escherichia coli cells transformed with pET28a plasmid containing a kanamycin resistance gene, were grown at 37° C. in 2 mL of LB medium (Miller's LB broth, Research Products International) supplemented with 50 μg/mL of kanamycin, until the optical density (OD600) reached 0.6. The starting density of bacteria in the remainder of the experiments was a 1/100 dilution of this bacterial density, which was split into 4 mL cultures. A series of 400, 100, 10 and 5 mM stock solutions of each monoacylated benzo(crown-ether) (MAcBCE) and monoalkylated benzo(crown-ether) (MAkBCE) compounds in trifluoroethanol (TFE) were diluted by addition to the 4 mL cultures to reach final concentrations of 400, 200, 100, 50, 20, 15, 10, 5, 4, 3, 2 and 1 μM. The final TFE concentration was never higher than 0.1% v/v. Negative controls in the presence of TFE 0.1% v/v or in the absence of any treatment for each batch gave similar bacterial growth. The cultures were incubated at 37° C. with agitation for 12 h. Bacillus subtilis (168 WT) toxicity tests were carried out using an identical protocol, except they were transformed with the shuttle plasmid pRB374 in the presence of 5 μg/mL of kanamycin. […] Each compound was assayed a minimum of three times at each tested concentration.
The cytotoxicity of MABCE compounds was determined by measuring the MIC in liquid cultures of either the gram-negative bacteria Escherichia coli or the gram-positive bacteria Bacillus subtilis. […] As some curves overlap, portions of them are hidden. Values of MIC of 400 μM indicate that the value was either 400 μM, or it was higher and then was not determined. Each compound was assayed a minimum of three times at each different concentration. MICs for 5-A-4, 5-A-11, 6-A-11 and 6-O-11 could not be determined because the compounds were not soluble in TFE. While E. coli was not susceptible to any of the tested compounds at concentrations as high as 400 μM (data not shown), B. subtilis was susceptible to MABCE compounds bearing 15-crown-5 and 18-crown-6 scaffolds, but not to compounds containing a 12-crown-4 scaffold, as shown in FIG. 1.

B. subtilis membranes = assay: DiSC3(5) depolarization assay, MAcBCE/MAkBCE; assay type: cell-based, Bacillus subtilis; conditions: 2 μM compound, 60 mM KCl, NaCl or NMDG-Cl; for change in DiSC3(5) fluorescence (membrane depolarization): 25° C, 10 minutes
Protocol: A 2 mL liquid culture of transformed B. subtilis cells was grown at 37° C. in LB medium supplemented with 5 μg/mL kanamycin until OD600=0.6 was reached. The cells were collected by centrifugation at 2000 rpm over 3 min. The bacteria were washed twice with an NMDG-MeSO3 solution (100 mM NMDG, 10 mM HEPES, pH adjusted to 7.4 with methane sulfonic acid). […] The working dye solution was a 200 μM solution of DiSC3(5) (3,3′-dipropylthiadicarbocyanine iodide; Tokyo Chemical Industry) in DMSO. A series of 2 M solutions of NMDG-Cl, NaCl and KCl were prepared containing 10 mM HEPES; the pH was adjusted to pH 7.4 with NMDG, NaOH or KOH, respectively, to avoid any pH changes after their addition. The experiment was initiated with 3 mL of NMDG-MeSO3 in a quartz cuvette, then 5 μL of the dye solution was added (timepoint t1, 50 sec) for a 0.3 μM final concentration by the end of experiment. This was followed by the addition of 100 μL of the B. subtilis suspension (timepoint t2, 100 sec). After 150 sec (timepoint t3, 250 sec), the fluorescence stabilized to a minimum intensity and 100 μL of the 2 M NMDG-Cl, NaCl or KCl solution was added to reach ˜60 mM final concentration of the salt. The final step was the addition 0.64 μL of a 10 mM stock solution of the desired MAcBCE or MAkBCE compound in TFE (timepoint t4, 400 sec), for a final concentration of 2 μM. Negative controls were performed by adding the same volume of pure TFE to the cuvette at timepoint t4. Fluorescence intensity was recorded each second using a Horiba Fluoromax 4 spectrometer (λexcitation=640 nm; λemission=670 nm). The solution inside the cuvette was vigorously mixed throughout the experiment by using a magnetic stirrer and the temperature was kept constant at 25° C. For purposes of normalization, the fluorescence intensity was divided by the fluorescence level just before timepoint t2.
To determine whether MAcBCE or MAkBCE compounds catalyse ion-selective flux, a set of highly bioactive members bearing ten-carbon chain lengths were tested for their ability to depolarize B. subtilis membranes using a test based on the fluorescent dye 3,3-dipropylthiadicarbocyanine (DiSC3(5)). This set of compounds were selected as four of the most toxic members of the MAcBCE and MAkBCE compound library (5-O-10, 5-A-10, 6-O-10, and 6-A-10; FIG. 3) belong to this group and all are soluble in TFE. The two non-toxic benzo(12-crown-4) scaffold members (4-O-10 and 4-A-10; FIG. 3) were used as controls.
FIGS. 4 and 5 show the time course of DiSC3(5) fluorescence due to the addition of 2 μM 6-A-10 (FIG. 4) and 6-O-10 (FIG. 5). The average of the final fluorescence values (mean±S.E.M.) of at least three experiments are shown in FIGS. 4 and 5 and are similarly plotted for 4-A-10 (FIG. 6), 5-A-10 (FIG. 7), 6-A-10 (FIG. 8), 4-O-10 (FIG. 9), 5-O-10 (FIG. 10), and 6-O-10 (FIG. 11). Experiments were performed in a NMDG-MeSO3 solution (100 mM NMDG, 10 mM HEPES, pH adjusted to 7.4 with methane sulfonic acid). The events are: t1, addition of dye; t2, addition of B. subtilis; t3, addition of a 2 M NMDG-Cl, 2 M NaCl or a 2 M KCl solution up to a final concentration of 60 mM; t4, addition of each MAcBCE or MAkBCE compound up to 2 μM. Experiments were repeated at least four times per condition and normalized relative to the fluorescence intensity just before the addition of cells.
The potentiometric dye DiSC3(5) was used to measure the ability of MAcBCE and MAkBCE compounds to catalyse ion-selective transport. DiSC3(5) undergoes membrane voltage-dependent partitioning between the intracellular and the extracellular medium. DiSC3(5) accumulates within a cell with a polarized membrane (negatively charged inside the cell) and is released when the cell membrane is depolarized (positively charged inside the cell). The membrane voltage in B. subtilis is roughly −120 mV, leading to DiSC3(5) accumulation in the bacteria (timepoint t2 in FIG. 4A-B). […]

[4] = Planar lipid bilayer ion channel recordings; assay type: biochemical; conditions: 2 μM; bilayer clamped at 100 mV; 150 mM KCl, 10 mM HEPES, pH 7.4
Protocol: Experiments in planar lipid bilayers were performed via a Nanion Orbit-mini planar bilayer system. The planar membranes were formed by painting a 25 mg/mL solution of lipids in n-nonane over the four 50 μm apertures on the chip. The lipids used were asolectin from soybean (Sigma-Aldrich) or a 3:1 w/w mix of 1-palmitoyl-2-oleoyl-sn-glycero-3-phosphoethanolamine (POPE) and 1-palmitoyl-2-oleoyl-sn-glycero-3-phospho-(1′-rac-glycerol) (POPG) (Avanti Polar lipids). The solutions tested were KCl solution (150 mM KCl, 10 mM HEPES, pH adjusted to 7.4 with KOH), NaCl solution (150 mM NaCl, 10 mM HEPES, pH adjusted to 7.4 with NaOH), and a concentrated KCl solution (500 mM KCl, 10 mM HEPES, pH adjusted to 7.4 with KOH). When the appropriate membrane formed, the voltage was clamped at 100 mV or −100 mV, and a stock solution of gramicidin D (Sigma-Aldrich) in DMSO or LEC10 in TFE were added up to the desired concentration. The tested concentration of gramicidin D was 1 nM and 2, 10, 100 and 200 μM were tested for LEC10. Two different temperatures were tested for each condition: 25 and 37° C. The current was recorded over 10 min for the gramicidin test and up to 1 h for the LEC10 test. The data was analyzed with Clampfit 10.7 software (Axon Instruments).
FIGS. 41 and 42 show the lipid bilayer recordings. Current through the asolectin planar lipid bilayer clamped at 100 mV was recorded in the presence of […] (FIG. 41) and 2 μM LEC10 (FIG. 42). In both cases, the solution was 150 mM KCl, 10 mM HEPES, pH 7.4. […] This lack of unitary channel formation, or even a carrier-like increase of the conductance, precludes an ionophore-like mechanism of ion transport.

solubility in TFE [1] | Compound | toxicity / susceptibility of B. subtilis (MIC, FIG. 1) (Bacillus subtilis [3]) | other results
not soluble | CCCCc1ccc2c(c1)OCCOCCOCCOCCO2 [Compound 5-A-4, 15-butyl-2,3,5,6,8,9,11,12-octahydrobenzo[b][1,4,7,10,13]pentaoxacyclopentadecine] | – | –
not soluble | CCCCCCCCCCC(=O)c1ccc2c(c1)OCCOCCOCCOCCOCCO2 [Compound 6-O-11, 1-(2,3,5,6,8,9,11,12,14,15-decahydrobenzo[b][1,4,7,10,13,16]hexaoxacyclooctadecin-18-yl)undecan-1-one] | – | –
– | CCCCCCCCCCCN1CCOCCOCCN(CCCCCCCCCCC)CCOCCOCC1 [LEC11, Diundecyl diaza(18-crown-6)] | – | MIC (Bacillus subtilis [2]): 2 µM (≈ 1.14 µg/mL)
– | CCCCCCCCCCc1ccc2c(c1)OCCOCCOCCO2 [Compound 4-A-10, 12-decyl-2,3,5,6,8,9-hexahydrobenzo[b][1,4,7,10]tetraoxacyclododecine] | non-toxic | change in DiSC3(5) fluorescence (membrane depolarization) (B. subtilis membranes): negligible
– | CCCCCCCCCCc1ccc2c(c1)OCCOCCOCCOCCO2 [Compound 5-A-10, 15-decyl-2,3,5,6,8,9,11,12-octahydrobenzo[b][1,4,7,10,13]pentaoxacyclopentadecine] | most toxic | kinetics of the depolarization, ion dependence (B. subtilis membranes): fastest in presence of K^+ followed by Na^+ and then NMDG^+
not soluble | CCCCCCCCCCCc1ccc2c(c1)OCCOCCOCCOCCO2 [Compound 5-A-11, 15-undecyl-2,3,5,6,8,9,11,12-octahydrobenzo[b][1,4,7,10,13]pentaoxacyclopentadecine] | – | –
– | gramicidin D | – | ion channel activity [4]: unitary channels
not soluble | CCCCCCCCCCCc1ccc2c(c1)OCCOCCOCCOCCOCCO2 [Compound 6-A-11, 18-undecyl-2,3,5,6,8,9,11,12,14,15-decahydrobenzo[b][1,4,7,10,13,16]hexaoxacyclooctade-cine] | – | –
– | CCCCCCCCCCCCCN1CCOCCOCCN(CCCCCCCCCCCCC)CCOCCOCC1 [LEC13, Ditridecyl diaza(18-crown-6)] | – | MIC (Bacillus subtilis [2]): > 400 µM
– | CCCCCCCCCCCCN1CCOCCOCCN(CCCCCCCCCCCC)CCOCCOCC1 [LEC12, Didodecyl diaza(18-crown-6)] | – | MIC (Bacillus subtilis [2]): 2 µM (≈ 1.2 µg/mL)
– | CCCCCCCCCC(=O)c1ccc2c(c1)OCCOCCOCCO2 [Compound 4-O-10, 1-(2,3,5,6,8,9-hexahydrobenzo[b][1,4,7,10]tetraoxacyclododecin-12-yl)decan-1-one] | non-toxic | change in DiSC3(5) fluorescence (membrane depolarization) (B. subtilis membranes): negligible
– | CCCCCCCCCC(=O)c1ccc2c(c1)OCCOCCOCCOCCO2 [Compound 5-O-10, 1-(2,3,5,6,8,9,11,12-octahydrobenzo[b][1,4,7,10,13]pentaoxacyclopentadecin-15-yl)decan-1-one] | most toxic | kinetics of the depolarization, ion dependence (B. subtilis membranes): fastest in presence of K^+ followed by Na^+ and then NMDG^+
